Experimental data published in patent publication US20100047221A1, “COMPOSITIONS COMPRISING PYRUVATE ALKYL ESTERS AND USES THEREOF” (priority 2006, published 2010).

Columns and labels:
[1] = Stability in solution at room temperature, judged by appearance and taste; type: physicochemical; settings: room temperature (about 50 to 90 degrees F.); judged by appearance (color) and taste
From the text: Without wishing to be bound by theory, it is believed that methyl esters of pyruvic acid are more susceptible to hydrolysis in aqueous solution than are corresponding ethyl esters, which hydrolysis results in the production of pyruvic acid. Pyruvic acid, and the anion thereof, can then react by mechanisms well known in the art, to form a plethora of higher molecular compounds.

[2] = Gastric reflux (heartburn) in the taste assessment experiment; type: in vivo, human; settings: panel of 10 individuals; about 30 ml liquid composition, oral
Procedure: (§1) A panel of 10 individuals ingested a liquid composition (about 30 ml) at room temperature comprising ethylpyruvate (about 1 weight-percent) to provide a taste assessment. The panel was additionally provided a corresponding liquid composition of methylpyruvate (i.e., methyl ester of pyruvic acid) for comparative tasting. […] Without wishing to be bound by theory, it is believed that the sour taste associated with methylpyruvate results from hydrolysis of methylpyruvate within the sample to pyruvic acid, with the associated source taste of an acid. In contrast, the taste associated with ethylpyruvate appears to reflect a lack of hydrolysis to pyruvic acid in the sample.
In the taste assessment experiment (Example 2), gastric reflux (i.e., “heartburn”) was a considerable problem (i.e., 5 of 10 individuals reporting such) with methylpyruvate, but none reporting similar reaction with ethylpyruvate.

[3] = Mood enhancement before and after ingestion in the taste assessment experiment; type: in vivo, human; settings: about 1 weight-percent
Procedure: as §1
In the taste assessment experiment (Example 2), mood was assessed before and after ingestion of the liquid composition comprising ethylpyruvate. […] This mood enhancement commenced at between 5 and 15 minutes and lasted over 6 hours. In one case, the individual stated that the usual afternoon cup of coffee would not be necessary that day due to the ingestion of the composition.

[4] = Athlete oral ingestion before and during daily workouts; type: in vivo, human; settings: 12 athletes, 4x500 mL per day, about 0.06 weight-percent in water, four days
Procedure: A group of 12 athletes (19-22 years of age) self-administered oral ethylpyruvate in solution (4×500 mL ingested per day of a solution of about 0.06 weight-percent ethylpyruvate in water) before and during daily workouts (approximately 2 hours duration) for four days. The athletes having ingested oral ethylpyruvate reported less fatigue at the end of each workout, and similar favorable reports continued each day for the four days of practice.

[5] = Post-surgical oral ingestion by a patient with gastrointestinal inflammation; type: in vivo, human; settings: about 3x500 mL per day
Procedure: The patient had developed gastrointestinal inflammation and could not tolerate food by mouth for several days post-operative. Furthermore, bowel movements were frequent, watery and bloody, and were accompanied by lower abdominal pain. The patient self administered oral ethylpyruvate (about 3×500 mL per day daily for 1 week of an ethylpyruvate solution in commercial bottled spring water at 0.06 weight-percent ethylpyruvate). Within 3 hours of the initial dosing, persistent pain, hyperactive bowel and diarrhea resolved. The patient additionally reported an improved mood following oral ingestion of ethylpyruvate.

stability in solution versus the methyl ester of pyruvic acid [1]: higher stability | individuals reporting gastric reflux (heartburn) [2]: none
Structure (SMILES): CCOC(=O)C(C)=O [ethylpyruvate]
duration of mood enhancement ([3]; after ingestion of about 30 ml): over 6 hours | mood after ingestion ([3]; each of 10 individuals, about 30 ml, oral): increase in feelings of well-being and energy | performance in high-activity training regimens (wind sprints) versus sessions prior to ingestion ([4]; each subject): better performance | fatigue at the end of each workout [4]: less fatigue | time from initial dosing to resolution of persistent pain, hyperactive bowel and diarrhea ([5]; one patient after surgery and radiation for gastrointestinal carcinoma, 0.06 weight-percent in spring water): ≤ 3 h | mood reported by the patient ([5]; one patient, 0.06 weight-percent, 1 week): improved mood
